Where a name gives a salt, the structure may show the parent alone.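 Interpolation was linear, between the two tested concentrations surrounding the appropriate level; five concentrations were tested over 48 hours in 96-well plates. At the GI50, growth is halved.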 Calls of active or inactive are those of the source. Cut-off read from the data, not from the text of the source: active = GI50 up to about 1.1 µM and inactive = higher.
What was measured:
Assay in all cases: growth of human tumour cells (NCI), 48 h
[1] = test system: IGROV-1
[2] = test system: A549
[3] = test system: T47D
[4] = test system: K562
[5] = test system: UO-31
[6] = test system: SNB-19
[7] = test system: CCRF-CEM
[8] = test system: SK-MEL-2
[9] = test system: A498
[10] = test system: NCI-H23
[11] = test system: HOP-92
[12] = test system: HT-29
[13] = test system: SF-295
[14] = test system: BT-549
[15] = test system: MCF7
[16] = test system: RPMI-8226
[17] = test system: MOLT-4
[18] = test system: UACC-62

SMILES | GI50 [1] | GI50 [2] | GI50 [3] | GI50 [4] | GI50 [5] | GI50 [6] | GI50 [7] | GI50 [8] | GI50 [9] | GI50 [10] | GI50 [11] | GI50 [12] | GI50 [13] | GI50 [14] | GI50 [15] | GI50 [16] | GI50 [17] | GI50 [18]
CCN(CC)CCCNc1nc2ccccc2[n+]([O-])n1 | > 100 µM (inactive) | > 100 µM (inactive) | > 100 µM (inactive) | > 100 µM (inactive) | > 100 µM (inactive) | > 100 µM (inactive) | > 100 µM (inactive) | > 100 µM (inactive) | > 100 µM (inactive) | > 100 µM (inactive) | > 100 µM (inactive) | > 100 µM (inactive) | > 100 µM (inactive) | > 100 µM (inactive) | 50.9 µM (inactive) | > 100 µM (inactive) | > 100 µM (inactive) | > 100 µM (inactive)
CCOC(=O)C(CCN1CCC2(CC1)C(=O)N(C)CN2c1ccccc1)C(=O)OCC | > 100 µM (inactive) | > 100 µM (inactive) | > 100 µM (inactive) | > 100 µM (inactive) | > 100 µM (inactive) | > 100 µM (inactive) | > 100 µM (inactive) | > 100 µM (inactive) | > 100 µM (inactive) | > 100 µM (inactive) | > 100 µM (inactive) | > 100 µM (inactive) | > 100 µM (inactive) | > 100 µM (inactive) | > 100 µM (inactive) | > 100 µM (inactive) | > 100 µM (inactive) | > 100 µM (inactive)
CN1CCC(CN2c3ccccc3Sc3ccccc32)C1 (stereo not given) [METHDILAZINE HYDROCHLORIDE] | 17.3 µM (inactive) | 16.2 µM (inactive) | 15.8 µM (inactive) | 12.3 µM (inactive) | 14.8 µM (inactive) | 17.9 µM (inactive) | 15.2 µM (inactive) | 15.7 µM (inactive) | 13.1 µM (inactive) | 20.3 µM (inactive) | 12.8 µM (inactive) | 10.9 µM (inactive) | 16.1 µM (inactive) | 16.8 µM (inactive) | 17.2 µM (inactive) | 15.1 µM (inactive) | 16.3 µM (inactive) | 12.8 µM (inactive)
COc1ccc(/C=N/N2C(=O)c3c(N)c(C#N)c(-c4ccccc4)c(-c4ccccc4)c3C2=O)cc1 | > 100 µM (inactive) | > 100 µM (inactive) | > 100 µM (inactive) | > 100 µM (inactive) | > 100 µM (inactive) | 76.9 µM (inactive) | > 100 µM (inactive) | > 100 µM (inactive) | > 100 µM (inactive) |  | 84.3 µM (inactive) |  | 70.8 µM (inactive) | > 100 µM (inactive) | > 100 µM (inactive) | > 100 µM (inactive) | > 100 µM (inactive) | > 100 µM (inactive)
CC(=O)OCC1OC(OCCCOP(=O)(OCCC#N)OCC2OC(n3cnc4c(N)ncnc43)C(OC(=O)c3ccccc3)C2OC(=O)c2ccccc2)C(OC(C)=O)C(OC(C)=O)C1OC(C)=O (stereo not given) |  | > 100 µM (inactive) | > 100 µM (inactive) | > 100 µM (inactive) | > 100 µM (inactive) | > 100 µM (inactive) | > 100 µM (inactive) | > 100 µM (inactive) | > 100 µM (inactive) | > 100 µM (inactive) | > 100 µM (inactive) | > 100 µM (inactive) | > 100 µM (inactive) | > 100 µM (inactive) | > 100 µM (inactive) | > 64.1 µM (inactive) | > 100 µM (inactive) | > 100 µM (inactive)
COc1cc2c(c(O)c1OC)C(O)C1CCC(=O)N1C2c1ccc2c(c1)OCO2 (stereo not given) | > 100 µM (inactive) | > 100 µM (inactive) | > 100 µM (inactive) | > 100 µM (inactive) | > 100 µM (inactive) | > 100 µM (inactive) | > 100 µM (inactive) |  | > 100 µM (inactive) | > 100 µM (inactive) | > 100 µM (inactive) | 80.2 µM (inactive) | > 100 µM (inactive) | > 100 µM (inactive) | > 100 µM (inactive) |  | > 100 µM (inactive) | > 100 µM (inactive)
CCOC(=O)c1cc(C2CCN(c3ccccc3)C2=O)c(C(=O)/C=C(/C)O)[nH]1 (stereo not given) | > 100 µM (inactive) | 93.8 µM (inactive) | 36.6 µM (inactive) | 64 µM (inactive) | 66.7 µM (inactive) | > 100 µM (inactive) | 59.6 µM (inactive) | > 100 µM (inactive) | > 100 µM (inactive) | 55.6 µM (inactive) |  | > 100 µM (inactive) | 70.8 µM (inactive) | 61.2 µM (inactive) | 59.8 µM (inactive) | 48.9 µM (inactive) | 42.7 µM (inactive) | 82 µM (inactive)
CCN(CC)c1ccc(/C=C/C2=NN(c3cccc(S(=O)(=O)O)c3)C3(C2)SCC(=O)N3c2nc3ccccc3s2)cc1 (stereo not given) | 41.7 µM (inactive) | 32.7 µM (inactive) | 17.6 µM (inactive) | 17.7 µM (inactive) | 29.9 µM (inactive) | 39.8 µM (inactive) | 21.4 µM (inactive) | 40.1 µM (inactive) | 27.5 µM (inactive) | 37.2 µM (inactive) | 44.9 µM (inactive) | 36.6 µM (inactive) |  | 60.1 µM (inactive) | 25.6 µM (inactive) | 17.9 µM (inactive) | 22 µM (inactive) | 37.7 µM (inactive)
COC(=O)C(=O)C(C(=O)C(N)=O)c1nc2ccc(C(=O)c3ccccc3)cc2nc1O (stereo not given) | 83.2 µM (inactive) | > 100 µM (inactive) | 70.5 µM (inactive) | 34.2 µM (inactive) |  | > 10 µM (inactive) | > 100 µM (inactive) | > 100 µM (inactive) | > 100 µM (inactive) | > 10 µM (inactive) | > 100 µM (inactive) | > 100 µM (inactive) | 79.8 µM (inactive) | > 100 µM (inactive) | 63.8 µM (inactive) | 62.5 µM (inactive) | 54.3 µM (inactive) | > 100 µM (inactive)
O=C1C=C(c2ccccc2)O/C1=C\C(=O)c1ccc(Cl)cc1 | 17.1 µM (inactive) |  | 23.3 µM (inactive) | 22.2 µM (inactive) | 20.7 µM (inactive) | > 100 µM (inactive) |  |  | 80.2 µM (inactive) | 25.5 µM (inactive) | 19.2 µM (inactive) | 3.58 µM (inactive) |  | 12.5 µM (inactive) | 17.3 µM (inactive) | 16.7 µM (inactive) | 20.5 µM (inactive) | 15.6 µM (inactive)
Clc1ccc(-c2cn3c(nc4ccccc43)c(/C=C/c3ccco3)n2)cc1 | 30.5 µM (inactive) | 46.6 µM (inactive) | 22.9 µM (inactive) | 29.8 µM (inactive) | 48.2 µM (inactive) | 41.4 µM (inactive) |  | 18.1 µM (inactive) | 29.5 µM (inactive) | 31.4 µM (inactive) | 16.5 µM (inactive) | 62.8 µM (inactive) |  | 51.4 µM (inactive) | 7.85 µM (inactive) | 16.1 µM (inactive) |  | 41.8 µM (inactive)
O=[N+]([O-])c1ccc(CSC2=C(c3ccc(Cl)cc3)S/C(=C3\SC(SCc4ccc([N+](=O)[O-])cc4)=C(c4ccc(Cl)cc4)S3)S2)cc1 | > 100 µM (inactive) | > 100 µM (inactive) | > 100 µM (inactive) | > 100 µM (inactive) |  | > 100 µM (inactive) | > 100 µM (inactive) | > 100 µM (inactive) | > 100 µM (inactive) | > 100 µM (inactive) | < 0.01 µM (active) | > 100 µM (inactive) | > 100 µM (inactive) | > 100 µM (inactive) | > 100 µM (inactive) |  | > 100 µM (inactive) | > 100 µM (inactive)
O=C(CCc1cccc(O)c1)NCCc1ccc(O)cc1 | > 100 µM (inactive) | > 100 µM (inactive) | > 100 µM (inactive) | > 100 µM (inactive) | > 100 µM (inactive) | > 100 µM (inactive) | > 100 µM (inactive) | > 100 µM (inactive) | > 100 µM (inactive) | > 100 µM (inactive) | > 100 µM (inactive) | > 100 µM (inactive) | > 100 µM (inactive) | > 100 µM (inactive) | > 100 µM (inactive) |  | > 100 µM (inactive) | > 100 µM (inactive)
CC(Oc1ccccc1Cl)C(=O)NN1C(=O)CC(=O)NC1=S (stereo not given) | > 100 µM (inactive) | > 100 µM (inactive) | 36.6 µM (inactive) | 9.53 µM (inactive) | 92.5 µM (inactive) | > 100 µM (inactive) |  | 93.5 µM (inactive) | > 100 µM (inactive) | > 100 µM (inactive) | > 100 µM (inactive) | > 100 µM (inactive) | 89.5 µM (inactive) | > 100 µM (inactive) | > 100 µM (inactive) | 98.9 µM (inactive) | > 100 µM (inactive) | 46.1 µM (inactive)
C=C1C(=O)OC2C3C(=C)[C@@H](OC(C)=O)CC3C(C)=CC(OC(=O)C(C)(O)C(C)OC(C)=O)[C@@H]12 (stereo not given in full) | 7.36 µM (inactive) | 26.2 µM (inactive) | 19.5 µM (inactive) | 3.35 µM (inactive) | 12.4 µM (inactive) | 85.5 µM (inactive) | 2.84 µM (inactive) | 4.98 µM (inactive) | 16.7 µM (inactive) | 13.2 µM (inactive) |  | 5.09 µM (inactive) | 48.2 µM (inactive) | 13.6 µM (inactive) | 10.7 µM (inactive) | 7.18 µM (inactive) | 3.04 µM (inactive) | 10.6 µM (inactive)
CCNc1ccc2c(c1)C(=O)N(OS(C)(=O)=O)C2=O |  | > 100 µM (inactive) | > 100 µM (inactive) |  | 62.5 µM (inactive) | > 100 µM (inactive) | 32.1 µM (inactive) | 65.6 µM (inactive) | > 100 µM (inactive) | > 100 µM (inactive) | > 100 µM (inactive) | > 100 µM (inactive) | > 100 µM (inactive) | 71.4 µM (inactive) | 33.6 µM (inactive) | 31.9 µM (inactive) |  | > 100 µM (inactive)

Source: ChEMBL document CHEMBL1201862, “PubChem BioAssay data set” (2004)
